Data on five sequences can be found in US7202216B2 (The Board of Trustees of the Leland Stanford Junior …, priority 2002, dated 2007).

A short description of data set [1]: BBM fractions prepared from rat small intestinal mucosa.
For data set [2], the system named is small intestinal brush-border membrane (BBM) enzymes. Briefly: Brush-border membrane (BBM) digestion of gliadin peptides. The conditions noted are these: 12 ng/μl BBM protein, rat small intestinal mucosa.
Data set [3] relates to gastric and pancreatic proteases (pepsin, trypsin, chymotrypsin, elastase, carboxypeptidase).
Data set [4] is described as follows: Amount of peptides digested after 15 hours (Table 1, samples H1P0-H5P0). In kind it is in vitro ADME.
In data set [5] the target is T1, tissue transglutaminase (tTGase) (Homo sapiens, UniProt P21980).
T1 sequence (P21980 1-687): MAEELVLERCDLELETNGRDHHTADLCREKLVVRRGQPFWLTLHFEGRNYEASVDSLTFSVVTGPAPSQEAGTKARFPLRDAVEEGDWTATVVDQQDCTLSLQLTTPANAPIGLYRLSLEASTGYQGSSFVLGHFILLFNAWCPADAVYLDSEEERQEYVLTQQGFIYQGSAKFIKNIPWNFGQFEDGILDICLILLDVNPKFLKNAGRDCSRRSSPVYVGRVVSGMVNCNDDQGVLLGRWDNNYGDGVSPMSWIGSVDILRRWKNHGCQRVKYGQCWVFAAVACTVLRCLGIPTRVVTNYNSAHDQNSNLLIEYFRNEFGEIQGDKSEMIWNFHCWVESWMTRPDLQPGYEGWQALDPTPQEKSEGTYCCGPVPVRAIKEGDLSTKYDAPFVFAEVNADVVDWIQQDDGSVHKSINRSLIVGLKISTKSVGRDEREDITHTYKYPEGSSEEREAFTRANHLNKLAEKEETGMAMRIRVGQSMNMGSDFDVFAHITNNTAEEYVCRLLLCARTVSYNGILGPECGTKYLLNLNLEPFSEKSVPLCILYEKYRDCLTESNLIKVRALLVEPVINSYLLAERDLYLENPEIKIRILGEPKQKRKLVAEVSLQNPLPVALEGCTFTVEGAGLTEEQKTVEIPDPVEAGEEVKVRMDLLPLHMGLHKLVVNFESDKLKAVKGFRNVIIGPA
The conditions noted are these: vs natural substrate fibrinogen; cited from earlier work.

Where no end group is shown, it is not given here.

In the case of LQLQPFPQPQLPYPQPQLPYPQPQLPYPQPQPF, in data set [1], the not cleaved entry is “half-life of digestion >20 h; remains intact”.
“LQLQPFPQPQLPYPQPQLPYPQPQLPYPQPQPF [33-mer]” yielded a half-life of digestion in data set [2] above 20 h. Further, the “stability on prolonged exposure to proteases” value in data set [3] is “remained intact”. Besides, the “Amount of Peptides Digested after 15 hours” value (“Amount of Peptides Digested” for short) in data set [4] (sample H1P0), in data set [4] (sample H2P0), in data set [4] (sample H3P0), in data set [4] (sample H4P0) and in data set [4] (sample H5P0) was below 20% in each case.
As to “PQPQLPYPQPQLPY (listed as Triticum aestivum) [α-gliadin derived tTGase substrate peptide]”, the “specificity of tTGase relative to its target peptide sequence in fibrinogen” value in data set [5] was 5 fold.
Consider QLQPFPQPQLPY [Control A], for which the “Amount of Peptides Digested” value in data set [4] (sample H1P0) is above 90%; in data set [4] (sample H2P0) it was above 61%; in data set [4] (sample H3P0), above 87%; in data set [4] (sample H4P0) it was above 96%; in data set [4] (sample H5P0), above 96%.
WQIPEQSR [Control B]: the “Amount of Peptides Digested” value in data set [4] (sample H1P0) is recorded as above 90%; in data set [4] (sample H2P0), above 85%; in data set [4] (sample H3P0) it was above 95%; in data set [4] (sample H4P0) it was above 95%; in data set [4] (sample H5P0), above 95%.
